Measurements as given in ChEMBL document CHEMBL1201862, “PubChem BioAssay data set” (2004).
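Compound exposure: 48 hours, 5 concentrations, 96-well plates. Abbreviation: GI50, concentration required for 50% inhibition of growth.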 The source made the active and inactive calls. Cut-off read from the data, not from the text of the source: active = GI50 up to about 1.1 µM and inactive = higher.

Tests used:
Assay in all cases: inhibition of tumour cell growth, NCI panel, 48 h
[1] = system: BT-549
[2] = system: LOX IMVI
[3] = system: K562
[4] = system: DU-145
[5] = system: SNB-75
[6] = system: MDA-N
[7] = system: SK-MEL-28
[8] = system: SF-268
[9] = system: NCI-H460
[10] = system: Hs-578T
[11] = system: SF-539
[12] = system: SK-MEL-5
[13] = system: CAKI-1
[14] = system: M14
[15] = system: A549
[16] = system: MDA-MB-435
[17] = system: SK-MEL-2
[18] = system: PC-3
[19] = system: RXF 393

Measured: GI50

O=C1N=C(S)NNC12c1ccccc1-c1ccccc12
inactive: [1] > 10 µM | [2] > 10 µM | [3] > 10 µM | [4] > 10 µM | [5] > 10 µM | [6] > 10 µM | [7] > 10 µM | [8] > 10 µM | [9] 5.42 µM | [10] 6.18 µM | [11] > 10 µM | [12] 5.22 µM | [13] > 10 µM | [14] > 10 µM | [15] > 10 µM

COc1ccc(N2C(=O)CSC2c2cc(OC)c(OC)c(OC)c2)cc1 (stereo unspecified)
inactive: [1] 23.2 µM | [2] 23.1 µM | [3] 11.9 µM | [4] 14.5 µM | [16] 10.9 µM | [17] 33.9 µM | [6] 9.68 µM | [7] 33.4 µM | [8] 31.8 µM | [9] 18.9 µM | [10] 48.6 µM | [11] 32.8 µM | [12] 20.9 µM | [13] 25 µM | [18] 25.1 µM | [14] 18.6 µM | [15] 25.5 µM

CO/C(=N\N=C\c1ccccc1F)c1ccncc1
inactive: [1] > 10 µM | [2] > 10 µM | [19] > 10 µM | [3] > 10 µM | [4] > 10 µM | [16] > 10 µM | [17] > 10 µM | [6] > 10 µM | [8] > 10 µM | [9] > 10 µM | [13] > 10 µM | [18] > 10 µM | [14] > 10 µM | [15] > 10 µM

O=C(CCN1CCOCC1)Nc1ccc(F)cc1F
inactive: [1] > 100 µM | [2] > 100 µM | [3] > 100 µM | [4] > 100 µM | [16] > 100 µM | [17] > 100 µM | [6] > 100 µM | [7] > 100 µM | [8] > 100 µM | [9] > 100 µM | [10] > 100 µM | [11] > 100 µM | [12] > 100 µM | [13] > 100 µM | [18] > 100 µM | [14] > 100 µM | [15] > 100 µM

C=CCN1C[C@@H](C)N([C@@H](c2ccc(C(=O)N(CC)CC)cc2)c2cccc(OC)c2)C[C@@H]1C
inactive: [1] > 100 µM | [2] > 100 µM | [3] > 100 µM | [4] > 100 µM | [16] > 100 µM | [17] > 100 µM | [6] > 100 µM | [7] > 100 µM | [8] > 100 µM | [10] > 100 µM | [11] > 100 µM | [12] > 100 µM | [13] > 100 µM | [18] > 100 µM | [14] > 100 µM | [15] > 100 µM

CC(C)=CCC/C(C)=C/CO [GERANIOL]
inactive: [1] > 100 µM | [2] > 100 µM | [3] > 100 µM | [4] > 100 µM | [16] > 100 µM | [17] > 100 µM | [6] > 100 µM | [7] > 100 µM | [8] > 100 µM | [9] > 100 µM | [10] > 100 µM | [11] > 100 µM | [12] > 100 µM | [13] > 100 µM | [18] > 100 µM | [14] > 100 µM | [15] > 100 µM

CC(=O)Nc1ccc(N2C(=O)/C(=C\c3cccc(Oc4ccccc4)c3)SC2c2ccccc2)cc1 (stereo unspecified)
inactive: [1] 33.3 µM | [2] 17.2 µM | [19] 30.4 µM | [3] 33.1 µM | [4] 27.5 µM | [16] 32.5 µM | [17] 30.4 µM | [6] 18.9 µM | [7] 27.4 µM | [8] 50.6 µM | [9] 50.7 µM | [10] 12.7 µM | [11] 19.3 µM | [12] 23.7 µM | [13] 66.4 µM | [14] 32.3 µM | [15] 27.1 µM

CNC(=S)N1CCN(C(C)=O)C1=S
inactive: [1] 12.9 µM | [2] 76.7 µM | [3] 54.2 µM | [4] > 100 µM | [5] 26.5 µM | [16] 22.2 µM | [17] 2.25 µM | [6] 51.8 µM | [7] 29.2 µM | [8] 54.8 µM | [9] 87.9 µM | [10] 23.6 µM | [11] 20.4 µM | [12] 71.4 µM | [13] 50 µM | [14] 42.4 µM | [15] 38.8 µM

CC(=O)Oc1cc(S(=O)(=O)Nc2n[nH]c(Nc3ccc(C)cc3)n2)c(S)cc1Cl
inactive: [1] > 100 µM | [2] > 100 µM | [3] 68.1 µM | [4] > 100 µM | [16] > 100 µM | [17] > 100 µM | [6] > 100 µM | [7] > 100 µM | [9] > 100 µM | [10] 79.3 µM | [11] > 100 µM | [12] > 100 µM | [13] > 100 µM | [18] > 100 µM | [14] > 100 µM | [15] > 100 µM
